Measured values from US20240279176A1, “SUBSTITUTED TRICYCLIC HETEROCYCLIC COMPOUNDS AS METALLO-BETA-LACTAMASE INHIBITORS” (priority 2021, published 2024).
Like-named read-outs stand apart in the source and are kept apart here.

Experiments:
[1] = biological target: IMP-1 (Serratia marcescens, UniProt P52699); assay: Enzyme activity: IC50 in fluorescence assay with cephalosporin substrate FC5; type: biochemical; conditions: 100 pM IMP-1, 10 μM FC5, 10 min pre-incubation
Protocol: (§1) The Class B beta-lactamases activities were measured in the presence of the test inhibitors in a fluorescence assay against an in-house synthesized fluorescent cephalosporin substrate FC5 (Berkel, et. al. J. Med. Chem. 2013, 56(17), 6945). The enzymes (NDM-1, IMP-1) and the substrate were diluted in 20 mM HEPES, pH 7.4, supplemented with 300 mM NaCl and 10 μM ZnSO4. In the assay, the final concentration of enzyme was 50 pM, and 100 pM for NDM-1, and IMP-1 respectively, and the final concentration of FC5 was 1.5 μM for NDM-1 and 10 μM for IMP-1. The test inhibitors/compounds were dissolved in dimethylsulfoxide (DMSO) and diluted in the assay with assay buffer (20 mM HEPES, pH 7.4, supplemented with 5% DMSO, 300 mM NaCl and 10 μM ZnSO4), resulting in a final concentration range of 0.008 μM to 25 μM. The assays were performed in 96-well microplate (flat bottom, black). The test inhibitors were incubated with the MBL enzyme for 10 min at room temperature, followed by addition the substrate and the fluorescence was recorded immediately (λex 380 nm, λem 460 nm) on a microplate reader. Using the initial velocity data plotted against the inhibitor concentration, the half-maximal inhibitory concentrations were calculated by an IC50 curve-fitting model in GraphPad Prism 9 software.

[2] = biological target: NDM-1 (Klebsiella pneumoniae, UniProt C7C422); assay: as above; type: biochemical; conditions: 50 pM NDM-1, 1.5 μM FC5, 10 min pre-incubation
Chain of NDM-1 (C7C422 29-270, looked up): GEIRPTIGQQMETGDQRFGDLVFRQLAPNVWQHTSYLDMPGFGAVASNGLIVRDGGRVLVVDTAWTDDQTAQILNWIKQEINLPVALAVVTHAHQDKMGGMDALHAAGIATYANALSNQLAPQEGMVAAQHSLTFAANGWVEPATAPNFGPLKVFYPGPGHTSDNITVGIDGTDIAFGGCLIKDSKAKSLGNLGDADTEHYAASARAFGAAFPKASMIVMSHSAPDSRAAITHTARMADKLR
Protocol: as §1

[3] = test system: Klebsiella pneumoniae ATCC BAA-2146; assay: Minimum inhibitory concentration (MIC), broth-microdilution (CLSI); type: cell-based
From the text: (§2) The strain included in the study was Klebsiella pneumoniae ATCC BAA-2146 (Himedia®, India) with presence of New Delhi metallo-β-lactamase (NDM-1) gene. The quality control reference strains Escherichia coli ATCC 25922 and Pseudomonas aeruginosa ATCC 27853 were procured from Himedia®, India.
MIC values were identified through broth-microdilution in sterilized 96-well polystyrene flat-bottom microtitre plates (Cole-Parmer®) according to the guideline of the Clinical and Laboratory Standards Institute (CLSI) (CLSI; Methods for dilution antimicrobial susceptibility tests for bacteria that grow aerobically; Clinical Laboratory Standards Institute, M07-A09, 2012). This method involves the use of BBL™ Cation-adjusted Mueller-Hinton II Broth (CA-MHB; BD) and the strain (Klebsiella pneumoniae ATCC BAA-2146) concentration was adjusted to 5×10^5 CFU/mL. After 16-18 h of incubation at various concentrations of Imipenem, Meropenem (Alfa Aesar), or test compounds at 37° C., MIC was defined as the lowest concentration of antibiotic or test compound with no visible growth.

[4] = test system: Klebsiella pneumoniae ATCC BAA-2146; assay: Checkerboard synergy assay in combination with Meropenem; type: cell-based; conditions: K. pneumoniae ATCC BAA-2146; for Fold reduction in meropenem MIC in the presence of compounds (μg/mL) 4: compound at 4 μg/mL; for Fold reduction in meropenem MIC in the presence of compounds (μg/mL) 8: compound at 8 μg/mL; for Fold reduction in meropenem MIC in the presence of compounds (μg/mL) 16: compound at 16 μg/mL; for Fold reduction in meropenem MIC in the presence of compounds (μg/mL) 32: compound at 32 μg/mL
From the text: as §2
(§3) The fold modulation activity of test compounds, in combination with Imipenem or Meropenem, was checked against Klebsiella pneumoniae ATCC BAA-2146 strain by the broth-microdilution checkerboard synergy assay. The plates contained 5×10^5 CFU/mL bacterial inocula and 2-fold serial dilutions of the antibiotics (128-2 μg/mL) as well as test compounds (32-4 μg/mL) in a total volume of 200 μL of CA-MHB. Dimethyl sulfoxide (DMSO, ≤2.5%) was included as vehicle control. Following 16-18 h of incubation at 37° C., the MICs of antibiotics as well as drug combinations were visually inspected.

[5] = test system: Klebsiella pneumoniae ATCC BAA-2146; assay: Checkerboard synergy assay in combination with Imipenem; type: cell-based; conditions: K. pneumoniae ATCC BAA-2146; for Fold reduction in Imipenem MIC in the presence of compounds (μg/mL) 4: compound at 4 μg/mL; for Fold reduction in Imipenem MIC in the presence of compounds (μg/mL) 8: compound at 8 μg/mL; for Fold reduction in Imipenem MIC in the presence of compounds (μg/mL) 16: compound at 16 μg/mL; for Fold reduction in Imipenem MIC in the presence of compounds (μg/mL) 32: compound at 32 μg/mL
From the text: as §2, §3

[6] = ATCCBAA2146, compound alone, Imipenem series, K. pneumoniae ATCC BAA-2146, read-out: Intrinsic MIC
[7] = ATCCBAA2146, compound alone, meropenem series, K. pneumoniae ATCC BAA-2146, read-out: Intrinsic MIC

Chain of IMP-1 (P52699 19-246, looked up, species assumed): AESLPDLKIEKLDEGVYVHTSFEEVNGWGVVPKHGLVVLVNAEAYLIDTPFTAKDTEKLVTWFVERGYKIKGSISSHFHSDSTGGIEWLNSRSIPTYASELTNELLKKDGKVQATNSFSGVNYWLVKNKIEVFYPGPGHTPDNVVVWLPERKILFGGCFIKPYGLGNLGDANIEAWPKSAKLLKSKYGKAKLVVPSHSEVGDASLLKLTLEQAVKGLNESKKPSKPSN

Compound	IC50 [1] [µM]	IC50 [2] [µM]	MIC [3, 6] [µg/mL]	MIC [3, 7] [µg/mL]	Fold reduction in meropenem MIC in the presence of compounds (μg/mL) 4 [4] [fold]	Fold reduction in meropenem MIC in the presence of compounds (μg/mL) 8 [4] [fold]	Fold reduction in meropenem MIC in the presence of compounds (μg/mL) 16 [4] [fold]	Fold reduction in meropenem MIC in the presence of compounds (μg/mL) 32 [4] [fold]	Fold reduction in Imipenem MIC in the presence of compounds (μg/mL) 4 [5] [fold]	Fold reduction in Imipenem MIC in the presence of compounds (μg/mL) 8 [5] [fold]	Fold reduction in Imipenem MIC in the presence of compounds (μg/mL) 16 [5] [fold]	Fold reduction in Imipenem MIC in the presence of compounds (μg/mL) 32 [5] [fold]	MIC ([3]; ATCCBAA2146, antibiotic alone, read-out: MIC of meropenem against Klebsiella pneumoniae ATCC BAA-2146) [µg/mL]
O=C(O)c1[nH]c2c(c1-c1cc(Cl)cc(Cl)c1)CCc1ccccc1-2 [Example 2, 3-(3,5-dichlorophenyl)-4,5-dihydro-1H-benzo[g]indole-2-carboxylic Acid]	0.026	0.036	> 64	> 128	4	8	8	16					
COc1ccc(F)cc1-c1c(C(=O)O)[nH]c2c1CCc1ccccc1-2 [Example 34, 3-(5-Fluoro-2-methoxyphenyl)-4,5-dihydro-1H-benzo[g]indole-2-carboxylic Acid]	0.096	0.103	> 128	> 128	4	4	4	16	4	8	8	16	
COc1ccccc1-c1c(C(=O)O)[nH]c2c1CCc1ccccc1-2 [Example 35, 3-(2-methoxyphenyl)-4,5-dihydro-1H-benzo[g]indole-2-carboxylic Acid]	1.81	0.248	> 128	> 128	4	4	8	8	2	4	4	8	
O=C(O)c1[nH]c2c(c1-c1cccc(Cl)c1)CCc1ccccc1-2 [Example 45, 3-(3-chlorophenyl)-4,5-dihydro-1H-benzo[g]indole-2-carboxylic Acid]		0.132	> 128	> 128	2	4	4	8	2	4	8	8	
Cc1ccc(-c2c(C(=O)O)[nH]c3c2CCc2ccccc2-3)c(F)c1 [Example 49, 3-(2-fluoro-4-methylphenyl)-4,5-dihydro-1H-benzo[g]indole-2-carboxylic Acid]	2.05	0.319	> 128	> 128	2	2	4	4					
Cc1cc(Cl)cc(-c2c(C(=O)O)[nH]c3c2CCc2ccccc2-3)c1 [Example 57, 3-(3-chloro-5-methylphenyl)-4,5-dihydro-1H-benzo[g]indole-2-carboxylic Acid]		1.6	> 128	> 128	4	4	8	8	4	8	8	16	
O=C(O)c1[nH]c2c(c1-c1cc(F)cc(Cl)c1)CCc1ccccc1-2 [Example 58, 3-(3-chloro-5-fluorophenyl)-4,5-dihydro-1H-benzo[g]indole-2-carboxylic Acid]	0.869	0.009	> 128	> 128					4	8	8	16	
O=C(O)c1[nH]c2c(c1-c1cc(Cl)c(Cl)c(Cl)c1)CCc1ccccc1-2 [Example 60, 3-(3,4,5-trichlorophenyl)-4,5-dihydro-1H-benzo[g]indole-2-carboxylic Acid]	1.56		> 128	> 128	4	8	8	8	4	8	8	16	
COc1cc(F)cc(-c2c(C(=O)O)[nH]c3c2CCc2ccccc2-3)c1 [Example 62, 3-(3-fluoro-5-methoxyphenyl)-4,5-dihydro-1H-benzo[g]indole-2-carboxylic Acid]	3.45	0.196	> 128	> 128					4	4	8	8	
O=C(O)c1[nH]c2c(c1-c1ccccc1)CCc1ccccc1-2 [Example 63, 3-phenyl-4,5-dihydro-1H-benzo[g]indole-2-carboxylic Acid]	4.05	2.36	> 128	> 128					4	4	8	8	
CC1Cc2c([nH]c(C(=O)O)c2-c2cc(F)cc(Cl)c2)-c2ccccc21 (stereo not shown) [Example 64, 3-(3-chloro-5-fluorophenyl)-5-methyl-4,5-dihydro-1H-benzo[g]indole-2-carboxylic Acid]	0.821	1.42	> 128	> 128					4	4	8	8	
C[C@@H](O)[C@H]1C(=O)N2C(C(=O)O)=C(S[C@@H]3CN[C@H](C(=O)N(C)C)C3)[C@H](C)[C@H]12 [meropenem, reference compound]													128
